What was measured:
[1] = tested on: IL-6 levels in human whole blood stimulated with a TLR2 agonist; test: IRAK4 Whole Blood Assay (lipoteichoic acid/TLR2-stimulated IL-6); type: cell-based; conditions: lipoteichoic acid 10 μg/mL, IL-6 readout
Summary of the method: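 IL-6 was quantified by cytometric bead assay in supernatants of human blood (ACD-A) stimulated for 5 h with lipoteichoic acid at 10 μg/mL final. Compound exposure preceded stimulation for 60 min at 37 °C, 5% CO2.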

IRAK4 = IRAK4 (Homo sapiens (Human), UniProt Q9NWZ3); test: IRAK4 Inhibition Assay; type: biochemical; conditions: ATP 500 μM; IRAK4 0.6 nM
Chain of IRAK4 (Q9NWZ3 whole entry): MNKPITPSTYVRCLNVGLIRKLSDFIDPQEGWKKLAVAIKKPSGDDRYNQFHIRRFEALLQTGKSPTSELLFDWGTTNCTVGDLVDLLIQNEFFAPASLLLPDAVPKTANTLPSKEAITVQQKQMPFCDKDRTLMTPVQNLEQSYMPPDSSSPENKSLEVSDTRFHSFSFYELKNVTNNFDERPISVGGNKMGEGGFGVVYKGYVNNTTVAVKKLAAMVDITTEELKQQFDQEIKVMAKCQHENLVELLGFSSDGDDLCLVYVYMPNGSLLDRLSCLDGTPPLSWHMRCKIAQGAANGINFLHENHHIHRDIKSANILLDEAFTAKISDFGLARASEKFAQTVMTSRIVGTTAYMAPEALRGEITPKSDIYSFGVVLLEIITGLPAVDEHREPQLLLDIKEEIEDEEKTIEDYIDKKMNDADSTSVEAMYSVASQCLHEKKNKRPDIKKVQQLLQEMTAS
Summary of the method: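 Mobility-shift kinase assay: 0.6 nM IRAK4, 500 μM ATP, 1.5 μM fluorescent peptide, 60 min, room temperature. Percent inhibition was normalised between enzyme-free and DMSO-only wells.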

Caco Permeability Assay = type: in vitro ADME; conditions: human, Caco-2, Caco-2 cells, 3 μM compound
Method: Thirteen to 27 days prior to assay, Caco-2 cells were seeded onto collagen-coated polycarbonate filter membranes in 24-well transwell plates at a density of 1.45×10^5 cells/cm^2, approximately 4.8×10^4 cells per well. The cells were grown in a culture medium consisting of DMEM supplemented with 10% fetal bovine serum, 10 mM HEPES, 1% nonessential amino acids, 2 mM L-glutamine, 100 U/mL penicillin-G, and 100 μg/mL streptomycin. The culture medium was replaced every 3 days and the cells were maintained at 37° C. in a 95% relative humidity and 5% CO2 atmosphere. The cells were evaluated for tight junction formation just prior to assay. The test compound was solubilized to 10 mM in 100% DMSO and diluted to 3 μM in assay buffer. Permeability studies were initiated by adding 200 μL assay buffer plus/minus compound to the apical transwell compartment and 600 μL assay buffer plus/minus compound to the basolateral compartment of the 24-well transwell low-binding cluster plate. For apical-to-basolateral (A to B) permeability (absorptive direction), buffer containing compound was placed in the apical compartment (donor wells), while buffer alone was placed in the corresponding basolateral compartments (receiver wells). For basolateral-to-apical (B to A) permeability (secretive direction), buffer containing compound was placed in the basolateral compartment (donor wells), while buffer alone was placed in the corresponding apical compartments (receiver wells). Transwells were then incubated for 2 hours at 37° C. in a 95% relative humidity and 5% CO2 atmosphere with gentle agitation. Following incubation, 100 μL was removed from each apical and basolateral compartment and transferred to 96-well low binding plates that had been previously loaded with 100 µL/well of acetonitrile containing 250 nM propranolol, 250 nM diclofenac, and 500 nM tolbutamide as internal standards. The samples were subsequently analyzed by LC-MS/MS to determine concentrations of compound.

EC50 ([1]; Homo sapiens) [nM] | IC50 (IRAK4) [nM] | Papp at 2 h, 3 µM (Caco Permeability Assay) [×10⁻⁶ cm/s] | EC50 [1] [nM] | Compound
780 | 1 | < 1.5 |  | CC(C)(F)Cn1cc(Nc2cc(-c3cnc4cc(C#N)cnn34)ncc2C(=O)NC[C@@H](F)C(C)(C)O)cn1 [Example 279, (R)-6-(7-cyanoimidazo[1,2-b]pyridazin-3-yl)-4-((1-(2-fluoro-2-methylpropyl)-1H-pyrazol-4-yl)amino)-N-(2-fluoro-3-hydroxy-3-methylbutyl)nicotinamide]
720 | 20 | 7.4 |  | CC(C)(O)[C@H](F)CNC(=O)c1cnc(-c2cnn3cc(C#N)cnc23)cc1NC1CC1 [Example 92, (R)-6-(6-cyanopyrazolo[1,5-a]pyrimidin-3-yl)-4-(cyclopropylamino)-N-(2-fluoro-3-hydroxy-3-methylbutyl) nicotinamide]
270 | 11 | < 1.5 |  | CC(C)(O)[C@H](F)CNC(=O)c1cnc(-c2cnn3cc(Cl)cnc23)cc1NCCCO [Example 164, (R)-6-(6-chloropyrazolo[1,5-a]pyrimidin-3-yl)-N-(2-fluoro-3-hydroxy-3-methylbutyl)-4-((3-hydroxypropyl)amino)nicotinamide]
 | 6 | 15.3 | 610 | CC(C)(O)[C@H](F)CNC(=O)c1cnc(-c2cnn3cc(Cl)cnc23)cc1NCCC(F)(F)F [Example 161, (R)-6-(6-chloropyrazolo[1,5-a]pyrimidin-3-yl)-N-(2-fluoro-3-hydroxy-3-methylbutyl)-4-((3,3,3-trifluoropropyl)amino)nicotinamide]
160 | 3 | < 1.5 |  | COCCn1cc(Nc2cc(-c3cnn4cc(C#N)cnc34)ncc2C(=O)NC[C@@H](F)C(C)(C)O)cn1 [Example 243, (R)-6-(6-cyanopyrazolo[1,5-a]pyrimidin-3-yl)-N-(2-fluoro-3-hydroxy-3-methylbutyl)-4-((1-(2-methoxyethyl)-1H-pyrazol-4-yl)amino)nicotinamide]
360 | 2 | 8.1 |  | CC(C)Cn1cc(Nc2cc(-c3cnn4cc(Cl)cnc34)ncc2C(=O)NC[C@@H](F)C(C)(C)O)cn1 [Example 247, (R)-6-(6-chloropyrazolo[1,5-a]pyrimidin-3-yl)-N-(2-fluoro-3-hydroxy-3-methylbutyl)-4-((1-isobutyl-1H-pyrazol-4-yl)amino)nicotinamide]
360 | 1 | < 1.5 |  | CCCn1cc(Nc2cc(-c3cnc4cc(C#N)cnn34)ncc2C(=O)NC[C@@H](F)C(C)(C)O)cn1 [Example 278, (R)-6-(7-cyanoimidazo[1,2-b]pyridazin-3-yl)-N-(2-fluoro-3-hydroxy-3-methylbutyl)-4-((1-propyl-1H-pyrazol-4-yl)amino)nicotinamide]
380 | 8 | < 1.5 |  | Cc1cc(Nc2cc(-c3cnn4cc(C#N)cnc34)ncc2C(=O)NC[C@@H](F)C(C)(C)O)n(C)n1 [Example 244, (R)-6-(6-cyanopyrazolo[1,5-a]pyrimidin-3-yl)-4-((1,3-dimethyl-1H-pyrazol-5-yl)amino)-N-(2-fluoro-3-hydroxy-3-methylbutyl)nicotinamide]
510 | 5 | 3.4 |  | Cc1cnn2c(-c3cc(NC4CC4)c(C(=O)NC[C@@H](F)C(C)(C)O)cn3)cnc2c1 [Example 184, (R)-4-(cyclopropylamino)-N-(2-fluoro-3-hydroxy-3-methylbutyl)-6-(7-methylimidazo[1,2-b]pyridazin-3-yl)nicotinamide]
430 | 3 | < 1.5 |  | CC(C)(O)[C@H](F)CNC(=O)c1cnc(-c2cnn3cc(C#N)cnc23)cc1Nc1ccn(CC(F)F)n1 [Example 230, (R)-6-(6-cyanopyrazolo[1,5-a]pyrimidin-3-yl)-4-((1-(2,2-difluoroethyl)-1H-pyrazol-3-yl)amino)-N-(2-fluoro-3-hydroxy-3-methylbutyl)nicotinamide]
500 | 10 | 29.9 |  | CC(C)(C)CCNC(=O)c1cnc(-c2cnc3cc(Cl)cnn23)cc1NC1COC1 [Example 192, 6-(7-chloroimidazo[1,2-b]pyridazin-3-yl)-N-(3,3-dimethylbutyl)-4-(oxetan-3-ylamino)nicotinamide]
1080 | 2 | 8.2 |  | CC(C)(O)[C@H](F)CNC(=O)c1cnc(-c2cnc3cc(Cl)cnn23)cc1NC1CCOCC1 [Example 143, (R)-6-(7-chloroimidazo[1,2-b]pyridazin-3-yl)-N-(2-fluoro-3-hydroxy-3-methylbutyl)-4-((tetrahydro-2H-pyran-4-yl)amino)nicotinamide]
490 | 7 | 31.2 |  | CC(C)(F)[C@H](F)CNC(=O)c1cnc(-c2cnc3cc(Cl)cnn23)cc1NC1COC1 [Example 189, (R)-6-(7-chloroimidazo[1,2-b]pyridazin-3-yl)-N-(2,3-difluoro-3-methylbutyl)-4-(oxetan-3-ylamino)nicotinamide]
100 | 3 | < 1.5 |  | C[C@@H](CO)Nc1cc(-c2cnc3cc(Cl)cnn23)ncc1C(=O)NC[C@@H](F)C(C)(C)O [Example 181, 6-(7-chloroimidazo[1,2-b]pyridazin-3-yl)-N—((R)-2-fluoro-3-hydroxy-3-methylbutyl)-4-(((S)-1-hydroxypropan-2-yl)amino)nicotinamide]
840 | 3 | 7.3 |  | CC[C@@H](C)Nc1cc(-c2cnn3cc(Cl)cnc23)ncc1C(=O)NC[C@@H](F)C(C)(C)O [Example 70, 4-(((R)-sec-butyl)amino)-6-(6-chloropyrazolo[1,5-a]pyrimidin-3-yl)-N—((R)-2-fluoro-3-hydroxy-3-methylbutyl)nicotinamide]
410 | 1 | 7.6 |  | CC(C)(O)[C@H](F)CNC(=O)c1cnc(-c2cnn3cc(Cl)cnc23)cc1Nc1cnn(CC2CC2)c1 [Example 251, (R)-6-(6-chloropyrazolo[1,5-a]pyrimidin-3-yl)-4-((1-(cyclopropylmethyl)-1H-pyrazol-4-yl)amino)-N-(2-fluoro-3-hydroxy-3-methylbutyl)nicotinamide]
750 | 2 | 8.9 |  | CC(C)(O)[C@H](F)CNC(=O)c1cnc(-c2cnc3cc(C#N)cnn23)cc1NC1CCC1 [Example 183, (R)-6-(7-cyanoimidazo[1,2-b]pyridazin-3-yl)-4-(cyclobutylamino)-N-(2-fluoro-3-hydroxy-3-methylbutyl)nicotinamide]
60 | 2 | 2.1 |  | COCCn1cc(Nc2cc(-c3cnn4cc(Cl)cnc34)ncc2C(=O)NC[C@@H](F)C(C)(C)O)cn1 [Example 242, (R)-6-(6-chloropyrazolo[1,5-a]pyrimidin-3-yl)-N-(2-fluoro-3-hydroxy-3-methylbutyl)-4-((1-(2-methoxyethyl)-1H-pyrazol-4-yl)amino) nicotinamide]
380 | 4 | 14.2 |  | CC(C)(O)[C@H](F)CNC(=O)c1cnc(-c2cnn3cc(Cl)cnc23)cc1NC1CCOCC1 [Example 30, (R)-6-(6-chloropyrazolo[1,5-a]pyrimidin-3-yl)-N-(2-fluoro-3-hydroxy-3-methylbutyl)-4-((tetrahydro-2H-pyran-4-yl)amino)nicotinamide]
1660 | 6 | 7.2 |  | CCNc1cc(-c2cnn3cc(C#N)cnc23)ncc1C(=O)NC[C@@H](F)C(C)(C)O [Example 93, (R)-6-(6-cyanopyrazolo[1,5-a]pyrimidin-3-yl)-4-(ethylamino)-N-(2-fluoro-3-hydroxy-3-methylbutyl)nicotinamide]
 | 3 | 3.6 | 210 | CC(C)(O)[C@H](F)CNC(=O)c1cnc(-c2cnn3cc(Cl)cnc23)cc1Nc1cnn(CC(F)(F)F)c1 [Example 226, (R)-6-(6-chloropyrazolo[1,5-a]pyrimidin-3-yl)-N-(2-fluoro-3-hydroxy-3-methylbutyl)-4-((1-(2,2,2-trifluoroethyl)-1H-pyrazol-4-yl)amino)nicotinamide]

— US10618903B2, “Heteroaryl substituted aminopyridine compounds” (BRISTOL-MYERS SQUIBB COMPANY, priority 2015, dated 2020)
